The record followed here is patent US8012492B2, “In vitro model of latent mycobacterial infection” (University of Central Florida Research Foundation, Inc., priority 2007, dated 2011).

The structures appear in SMILES notation.

One assay concerns Mtb within TDM. Format: cell-based, Mycobacterium tuberculosis.
For a further assay, the system named is WT-H37Rv. The class given is cell-based, Mycobacterium tuberculosis.

Turning to `NNC(=O)c1ccncc1` [INH], in the assay on Mtb within TDM, the “Resistance of Mtb recovered from TDM to antibiotics” value is “showed resistance to both antibiotics”.
Regarding `CO[C@H]1/C=C/O[C@@]2(C)Oc3c(C)c(O)c4c(O)c(c(/C=N/N5CCN(C)CC5)c(O)c4c3C2=O)NC(=O)/C(C)=C\C=C\[C@H](C)[C@H](O)[C@@H](C)[C@@H](O)[C@@H](C)[C@H](OC(C)=O)[C@@H]1C` [Rif, Rifampicin], in the assay with WT-H37Rv, the Rif resistant cells entry is recorded as “about 10%”, the Rif-resistance result is reported as “up to 25%” and the Rif-resistant cells result is given as “about 0.03%”. Also, in the assay on Mtb within TDM, the “Development of Rif resistance, share of the Mtb population” value is reported as “about 25%”.
